Key:
Mus musculus [1] = experiment: Toxicity in Balb/c mouse xenografted with human NCI-H1975 cells assessed as effect on lung size at 5 to 20 mg/kg, iv treated every 2 days for 9 days; assay type: organism-based; conditions: in vivo
NCI-H1975 [2] = experiment: Induction of apoptosis in human NCI-H1975 cells assessed as increase in cleaved caspase-3 level after 48 hrs by Western blot analysis; assay type: functional, cell-based
NCI-H1975 [3] = experiment: Induction of apoptosis in human NCI-H1975 cells assessed as necrotic cells at 10 uM after 48 hrs by annexin V/FITC-propidium iodide staining-based flow cytometric method ( Rvb = 1.01%); assay type: functional
Mus musculus [4] = experiment: Toxicity in Balb/c mouse xenografted with human NCI-H1975 cells assessed as change in body weight at 10 mg/kg, po qd treated for 18 days and measured every 2 days after compound dosing ( Rvb = 2.89%); assay type: organism-based; conditions: in vivo
NCI-H1975 [5] = experiment: Cell cycle arrest in human NCI-H1975 cells assessed as accumulation at S phase at 10 uM after 24 hrs by propidium iodide staining-based flow cytometric analysis (reference value: 22.93%); assay type: functional
NCI-H460 = experiment: Potency index, ratio of IC50 for magnolol to IC50 for test compound for antiproliferative activity against human H460 cells after 72 hrs by MTT assay; assay type: functional
NCI-H1975 [6] = experiment: Induction of apoptosis in human NCI-H1975 cells assessed as late apoptotic cells at 20 uM after 48 hrs by annexin V/FITC-propidium iodide staining-based flow cytometric method ( Rvb = 10.4%); assay type: functional
Mus musculus [7] = experiment: Toxicity in Balb/c mouse xenografted with human NCI-H1975 cells assessed as induction of vascular irritation at 5 to 20 mg/kg, iv treated every 2 days for 9 days; assay type: organism-based; conditions: in vivo
Mus musculus [8] = experiment: Toxicity in Balb/c mouse xenografted with human NCI-H1975 cells assessed as effect on kidney morphology at 5 to 20 mg/kg, iv treated every 2 days for 9 days; assay type: organism-based; conditions: in vivo
NCI-H1975 [9] = experiment: Induction of apoptosis in human NCI-H1975 cells assessed as viable cells at 5 uM after 48 hrs by annexin V/FITC-propidium iodide staining-based flow cytometric method ( Rvb = 82.5%); assay type: functional; conditions: NCI-H1975, 48 h, read-out: Activity
NCI-H1975 [10] = experiment: Induction of apoptosis in human NCI-H1975 cells assessed as late apoptotic cells at 10 uM after 48 hrs by annexin V/FITC-propidium iodide staining-based flow cytometric method ( Rvb = 10.4%); assay type: functional
NCI-H1975 [11] = experiment: Induction of apoptosis in human NCI-H1975 cells assessed as early apoptotic cells at 5 uM after 48 hrs by annexin V/FITC-propidium iodide staining-based flow cytometric method ( Rvb = 6.09%); assay type: functional
NCI-H1975 [12] = experiment: Induction of apoptosis in human NCI-H1975 cells after 48 hrs by annexin V/FITC-propidium iodide staining-based flow cytometric method; assay type: functional, cell-based
Mus musculus [13] = experiment: Toxicity in Balb/c mouse implanted with mouse C26 cells assessed as mouse death at 100 mg/kg, po qd treated for 10 days; assay type: organism-based; conditions: in vivo, 240 h
NCI-H1975 [14] = experiment: Antitumor activity against human NCI-H1975 cells xenografted in Balb/c mouse assessed as change in tumor mass at 20 mg/kg, iv treated every 2 days for 9 days and measured every 2 days after compound dosing relative to control; assay type: functional
NCI-H1975 [15] = experiment: Induction of apoptosis in human NCI-H1975 cells assessed as decrease in cyclin D1 level after 24 hrs by Western blot analysis; assay type: functional, cell-based
NCI-H1975 [16] = experiment: Induction of apoptosis in human NCI-H1975 cells assessed as increase in cleaved PARP level after 48 hrs by Western blot analysis; assay type: functional, cell-based
Mus musculus [17] = experiment: Toxicity in Balb/c mouse xenografted with human NCI-H1975 cells assessed as effect on kidney size at 5 to 20 mg/kg, iv treated every 2 days for 9 days; assay type: organism-based; conditions: in vivo
NCI-H1975 [18] = experiment: Cell cycle arrest in human NCI-H1975 cells assessed as accumulation at S phase at 20 uM after 24 hrs by propidium iodide staining-based flow cytometric analysis (reference value: 22.93%); assay type: functional
NCI-H1975 [19] = experiment: Antitumor activity against human NCI-H1975 cells xenografted in Balb/c mouse assessed as change in tumor mass at 5 mg/kg, iv treated every 2 days for 9 days and measured every 2 days after compound dosing relative to control; assay type: functional
Mus musculus [20] = experiment: Toxicity in Balb/c mouse xenografted with human NCI-H1975 cells assessed as effect on heart size at 5 to 20 mg/kg, iv treated every 2 days for 9 days; assay type: organism-based; conditions: in vivo
NCI-H1975 [21] = experiment: Cell cycle arrest in human NCI-H1975 cells assessed as accumulation at G2/M phase at 20 uM after 24 hrs by propidium iodide staining-based flow cytometric analysis (reference value: 20.11%); assay type: functional
HCC827 = experiment: Antiproliferative activity against human HCC827 cells after 72 hrs by MTT assay; assay type: functional, cell-based; conditions: HCC827, 72 h
NCI-H1975 [22] = experiment: Cell cycle arrest in human NCI-H1975 cells assessed as accumulation at G0/G1 phase at 10 uM after 24 hrs by propidium iodide staining-based flow cytometric analysis (reference value: 56.11%); assay type: functional
NCI-H1975 [23] = experiment: Cell cycle arrest in human NCI-H1975 cells assessed as reduction in accumulation at S phase after 24 hrs by propidium iodide staining-based flow cytometric analysis; assay type: functional
NCI-H1975 [24] = experiment: Cell cycle arrest in human NCI-H1975 cells assessed as accumulation at G2/M phase at 5 uM after 24 hrs by propidium iodide staining-based flow cytometric analysis (reference value: 20.11%); assay type: functional
Mus musculus [25] = experiment: Toxicity in Balb/c mouse xenografted with human NCI-H1975 cells assessed as effect on liver morphology at 5 to 20 mg/kg, iv treated every 2 days for 9 days; assay type: organism-based; conditions: in vivo
Mus musculus [26] = experiment: Toxicity in Balb/c mouse xenografted with human NCI-H1975 cells assessed as mouse death at 10 to 100 mg/kg, po qd treated for 18 days and measured every 2 days after compound dosing; assay type: organism-based; conditions: in vivo
Mus musculus [27] = experiment: Toxicity in Balb/c mouse xenografted with human NCI-H1975 cells assessed as change in body weight at 10 mg/kg, iv treated every 2 days for 9 days and measured every 2 days after compound dosing ( Rvb = 2.89%); assay type: organism-based; conditions: in vivo
Mus musculus [28] = experiment: Toxicity in Balb/c mouse xenografted with human NCI-H1975 cells assessed as change in body weight at 30 mg/kg, po qd treated for 18 days and measured every 2 days after compound dosing ( Rvb = 2.89%); assay type: organism-based; conditions: in vivo
NCI-H1975 [29] = experiment: Potency index, ratio of IC50 for magnolol to IC50 for test compound for antiproliferative activity against human NCI-H1975 cells after 72 hrs by MTT assay; assay type: functional
[30] = Antitumor activity against mouse C26 cells implanted in Balb/c mouse assessed as tumor growth inhibition at 100 mg/kg, po qd and measured every 2 days relative to control; assay type: functional; conditions: 48 h, read-out: TGI
NCI-H441 = experiment: Antiproliferative activity against human H441 cells after 72 hrs by MTT assay; assay type: functional, cell-based; conditions: NCI-H441, 72 h
PC-9 = experiment: Antiproliferative activity against human PC9 cells after 72 hrs by MTT assay; assay type: functional, cell-based; conditions: PC-9, 72 h
Mus musculus [31] = experiment: Toxicity in Balb/c mouse xenografted with human NCI-H1975 cells assessed as change in body weight at 20 mg/kg, iv treated every 2 days for 9 days and measured every 2 days after compound dosing ( Rvb = 2.89%); assay type: organism-based; conditions: in vivo

Q: For `C=CCc1ccc(O)c(-c2cc(CC=C)cc(CN3CCC(N)CC3)c2O)c1`, which Activity (Mus musculus [1]) is on record?
A: Non-Toxic

Q: What about the Activity (NCI-H1975 [2]) of the same compound?
A: Dose-dependent effect

Q: And the Activity (NCI-H1975 [3])?
A: 0.4%

Q: What about the Activity (Mus musculus [4]) of the same compound?
A: 13.3%

Q: And the Activity (NCI-H1975 [5])?
A: 18.57%

Q: What about the “Ratio IC50” value (NCI-H460) of the same compound?
A: 8

Q: And the Activity (NCI-H1975 [6])?
A: 49.1%

Q: What about the Activity (Mus musculus [7]) of the same compound?
A: Non-Toxic

Q: And the Activity (Mus musculus [8])?
A: Non-Toxic

Q: And the viability at 5 µM (NCI-H1975 [9])?
A: 66.5%

Q: What about the Activity (NCI-H1975 [10]) of the same compound?
A: 32.8%

Q: What about the Activity (NCI-H1975 [11]) of the same compound?
A: 6.68%

Q: What about the Activity (NCI-H1975 [12]) of the same compound?
A: Dose-dependent effect

Q: What about the Activity (Mus musculus [13]) of the same compound?
A: Non-Toxic

Q: And the Activity (NCI-H1975 [14])?
A: 65.8%

Q: What about the Activity (NCI-H1975 [15]) of the same compound?
A: Dose-dependent effect

Q: What about the Activity (NCI-H1975 [16]) of the same compound?
A: Dose-dependent effect

Q: And the Activity (Mus musculus [17])?
A: Non-Toxic

Q: And the Activity (NCI-H1975 [18])?
A: 12.63%

Q: And the Activity (NCI-H1975 [19])?
A: 49.2%

Q: And the Activity (Mus musculus [20])?
A: Non-Toxic

Q: And the Activity (NCI-H1975 [21])?
A: 6.13%

Q: What about the IC50 (HCC827) of the same compound?
A: 5.01 µM

Q: What about the Activity (NCI-H1975 [22]) of the same compound?
A: 67.09%

Q: And the Activity (NCI-H1975 [23])?
A: Dose-dependent effect

Q: And the Activity (NCI-H1975 [24])?
A: 13.41%

Q: And the Activity (Mus musculus [25])?
A: Non-Toxic

Q: What about the Activity (Mus musculus [26]) of the same compound?
A: Non-Toxic

Q: What about the Activity (Mus musculus [27]) of the same compound?
A: 8.89%

Q: What about the Activity (Mus musculus [28]) of the same compound?
A: 8.85%

Q: And the “Ratio IC50” value (NCI-H1975 [29])?
A: 8

Q: And the inhibition in vivo at 100 mg/kg [30]?
A: 47.9%

Q: What about the IC50 (NCI-H441) of the same compound?
A: 5.63 µM

Q: What about the IC50 (PC-9) of the same compound?
A: 12.5 µM

Q: And the Activity (Mus musculus [31])?
A: 8.23%

Source: ChEMBL document CHEMBL4152332, “Discovery and synthesis of novel magnolol derivatives with potent anticancer activity in non-small cell lung cancer” (Eur J Med Chem, 2018)
